The NIST ThermoML archive (doi:10.1016/j.jct.2005.08.007)
“And” between values parts separate entries of the source, which are not always exact repeats. Identical values can stand only once. ± gives the expanded uncertainty stated by the source.

Details: Crystal, Calculated from knudsen effusion weight loss

SMILES	vapor or sublimation pressure (305.14 K)	vapor or sublimation pressure (307.15 K)	vapor or sublimation pressure (309.16 K)	vapor or sublimation pressure (311.15 K)	vapor or sublimation pressure (313.15 K)	vapor or sublimation pressure (315.13 K)	vapor or sublimation pressure (317.13 K)	vapor or sublimation pressure (319.17 K)	vapor or sublimation pressure (321.14 K)	vapor or sublimation pressure (361.11 K)	vapor or sublimation pressure (363.08 K)	vapor or sublimation pressure (365.26 K)	vapor or sublimation pressure (367.09 K)	vapor or sublimation pressure (369.04 K)	vapor or sublimation pressure (371.26 K)	vapor or sublimation pressure (373.26 K)	vapor or sublimation pressure (375 K)	vapor or sublimation pressure (377.06 K)
O=[N+]([O-])c1cccc2ccccc12 [1-nitronaphthalene]	0.0001735 ± 8.7e-06 kPa and 0.0001744 ± 8.7e-06 kPa and 0.0001738 ± 8.7e-06 kPa	0.0002252 ± 1.1e-05 kPa and 0.0002215 ± 1.1e-05 kPa and 0.000218 ± 1.1e-05 kPa	0.0002813 ± 1.4e-05 kPa and 0.0002824 ± 1.4e-05 kPa and 0.0002776 ± 1.4e-05 kPa	0.0003559 ± 1.8e-05 kPa and 0.0003531 ± 1.8e-05 kPa and 0.0003518 ± 1.8e-05 kPa	0.0004632 ± 2.3e-05 kPa and 0.0004566 ± 2.3e-05 kPa and 0.0004531 ± 2.3e-05 kPa	0.0005799 ± 2.9e-05 kPa and 0.0005723 ± 2.9e-05 kPa and 0.0005739 ± 2.9e-05 kPa	0.0006969 ± 3.5e-05 kPa and 0.0007016 ± 3.5e-05 kPa and 0.0006949 ± 3.5e-05 kPa	0.0008754 ± 4.4e-05 kPa and 0.0008956 ± 4.5e-05 kPa and 0.0008803 ± 4.4e-05 kPa	0.001127 ± 0.00012 kPa and 0.001114 ± 0.00011 kPa and 0.001108 ± 0.00011 kPa									
O=[N+]([O-])c1c2ccccc2cc2ccccc12 [9-nitroanthracene]										0.00019 ± 1e-05 kPa and 0.000196 ± 1e-05 kPa and 0.000195 ± 1e-05 kPa	0.000236 ± 1.2e-05 kPa and 0.000238 ± 1.2e-05 kPa	0.000291 ± 1.5e-05 kPa and 0.000294 ± 1.5e-05 kPa	0.000354 ± 1.8e-05 kPa and 0.000339 ± 1.7e-05 kPa and 0.000342 ± 1.7e-05 kPa	0.000431 ± 2.2e-05 kPa and 0.000439 ± 2.2e-05 kPa and 0.000427 ± 2.1e-05 kPa	0.000532 ± 2.7e-05 kPa and 0.000526 ± 2.6e-05 kPa and 0.000534 ± 2.7e-05 kPa	0.00064 ± 3.2e-05 kPa and 0.000643 ± 3.2e-05 kPa and 0.000647 ± 3.2e-05 kPa	0.000772 ± 3.9e-05 kPa and 0.000773 ± 3.9e-05 kPa and 0.000761 ± 3.8e-05 kPa	0.000928 ± 4.6e-05 kPa and 0.000924 ± 4.6e-05 kPa
